Results published in ChEMBL document CHEMBL1159235, “The novel desmethyldestruxin B2, from Metarhizium anisopliae, that suppresses hepatitis B virus surface antigen production in human hepatoma cells” (J Nat Prod, 1995).
≈ marks a conversion by molar mass, not a printed value. Where a SMILES comes first, the peptide text is derived from it. [ ]: non-standard residue; d: D form. dLac(3-vinyl) = C=CC[C@@H](O)C(=O)O; dHica = CC(C)C[C@@H](O)C(=O)O; NMeV = CN[C@H](C(=O)O)C(C)C; NMeA = CN[C@@H](C)C(=O)O; βAla = NCCC(=O)O

The molecules below were run on Hepatitis B virus (assay: Antiviral activity against Hepatitis B virus infected in human Hep3B cells assessed as surface antigen production).
Format: functional, organism-based, Hep 3B2

With `CC(C)C[C@H]1OC(=O)CCNC(=O)[C@H](C)N(C)C(=O)[C@H](C(C)C)N(C)C(=O)[C@H](C(C)C)NC(=O)[C@@H]2CCCN2C1=O` [DESTRUXIN B2] (cyclo([NMeA][βAla][dHica]PV[NMeV])) as the molecule, how does the IC50 read?
The IC50 was 0.3 µg/mL (≈ 0.517 µM).

For `CC(C)C[C@H]1OC(=O)CCNC(=O)[C@H](C)N(C)C(=O)[C@H](C(C)C)NC(=O)[C@H](C(C)C)NC(=O)[C@@H]2CCCN2C1=O` [DESMETHYLDESTRUXIN B2] (cyclo([NMeA][βAla][dHica]PVV)), which IC50 is on record?
The IC50 was 1.5 µg/mL (≈ 2.65 µM).

With `CC[C@H](C)[C@@H]1NC(=O)[C@@H]2CCCN2C(=O)[C@@H](CC(C)C)OC(=O)CCNC(=O)[C@H](C)N(C)C(=O)[C@H](C(C)C)NC1=O` [DESMETHYLDESTRUXIN B] (cyclo(IV[NMeA][βAla][dHica]P)) as the molecule, how does the IC50 read?
Its IC50 is 0.6 µg/mL (≈ 1.03 µM).

How did the IC50 turn out when `CC[C@H](C)[C@@H]1NC(=O)[C@@H]2CCCN2C(=O)[C@@H](CC(C)C)OC(=O)CCNC(=O)[C@H](C)N(C)C(=O)[C@H](C(C)C)N(C)C1=O` (cyclo(I[NMeV][NMeA][βAla][dHica]P)) was run?
Its IC50 is 0.2 µg/mL (≈ 0.337 µM).

How did the IC50 turn out when `C=CC[C@H]1OC(=O)CCNC(=O)[C@H](C)N(C)C(=O)[C@H](C(C)C)N(C)C(=O)[C@H]([C@@H](C)CC)NC(=O)[C@@H]2CCCN2C1=O` (cyclo(I[NMeV][NMeA][βAla][dLac(3-vinyl)]P)) was run?
Its IC50 is 0.1 µg/mL (≈ 0.173 µM).

For `C=CC[C@H]1OC(=O)CCNC(=O)[C@H](C)N(C)C(=O)[C@H](C(C)C)N(C)C(=O)[C@H](C(C)C)NC(=O)[C@@H]2CCCN2C1=O` [DESTRUXIN A2] (cyclo([NMeA][βAla][dLac(3-vinyl)]PV[NMeV])), which IC50 is on record?
Its IC50 is 0.4 µg/mL (≈ 0.71 µM).

With `C=CC[C@H]1OC(=O)CCNC(=O)[C@H](C)N(C)C(=O)[C@H](C(C)C)NC(=O)[C@H]([C@@H](C)CC)NC(=O)[C@@H]2CCCN2C1=O` [DESMETHYLDESTRUXIN A] as the molecule, how does the IC50 read?
Its IC50 is 1.2 µg/mL (≈ 2.13 µM).
